In test [1] the target is T1, ET CTB (Vibrio cholerae serotype O1, UniProt P01556). The test is described as follows: biochemical. In kind it is binding. Conditions: for Kd: K D.
Test [2] addresses T1, ET CTB. In kind it is binding.

Broadly, the Kd is the concentration at which binding is half-saturated.

Where “and” joins values, the source holds several entries; their conditions need not be identical. Identical values can stand only once. Some results are limits rather than exact numbers.

T1 sequence (P01556 22-124 limits assumed): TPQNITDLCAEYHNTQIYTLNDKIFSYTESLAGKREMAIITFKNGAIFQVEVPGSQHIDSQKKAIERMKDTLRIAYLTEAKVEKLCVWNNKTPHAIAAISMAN

Take `CC(=O)N[C@@H]1[C@@H](O[C@@H]2O[C@@H](C)[C@@H](O)[C@@H](O)[C@@H]2O)[C@H](O[C@@H]2O[C@H](CO)[C@H](O)[C@H](O[C@H]3O[C@H](CO)[C@H](O)[C@H](O)[C@H]3NC(C)=O)[C@H]2O[C@@H]2O[C@@H](C)[C@@H](O)[C@@H](O)[C@@H]2O)[C@@H](CO)O[C@H]1O` [A-penta-BGA, GalNAcα3[Fucα2]Galβ4[Fucα3]GlcNAc]: on ET CTB [1], the “binding affinity (in words)” value is “binding very weakly” and the Kd was above 30 mM.

With `CC(=O)N[C@H]1[C@@H](O[C@H]2[C@@H](O)[C@@H](CO)O[C@@H](O[C@H]3[C@H](O[C@@H]4O[C@@H](C)[C@@H](O)[C@@H](O)[C@@H]4O)[C@@H](O)[C@H](O)O[C@@H]3CO)[C@@H]2O[C@@H]2O[C@@H](C)[C@@H](O)[C@@H](O)[C@@H]2O)O[C@H](CO)[C@H](O)[C@@H]1O` [A-penta-HMO, GalNAcα3[Fucα2]Galβ4[Fucα3]Glc], at ET CTB [1], the Kd is 4.6 mM and 4.57 mM. Moreover, the “binding of ET CTB to GM1-coated wells after preincubation with ligand” value at ET CTB [2] was “interfered with binding of CTB to GM1”.

Regarding GalNAcα3[Fucα2]Galβ3[Fucα4]GlcNAc, on ET CTB [1], the “binding to CTB” value is reported as “very weak to no binding”.

The values are drawn from publication PMC4833353 (PLoS Pathogens, 2016).
